# Test results published in ChEMBL document CHEMBL1135119, “Solid-phase synthesis of FKBP12 inhibitors: N-sulfonyl and N-carbamoylprolyl/pipecolyl amides” (Bioorg Med Chem Lett, 2002).
# Target: Peptidyl-prolyl cis-trans isomerase FKBP1A (Homo sapiens, UniProt P62942)
# Experiment: Ability to inhibit peptidyl-prolyl isomerase (PPIase, or rotamase) activity of FK506 binding protein 12
# Chain of Peptidyl-prolyl cis-trans isomerase FKBP1A (P62942 whole entry): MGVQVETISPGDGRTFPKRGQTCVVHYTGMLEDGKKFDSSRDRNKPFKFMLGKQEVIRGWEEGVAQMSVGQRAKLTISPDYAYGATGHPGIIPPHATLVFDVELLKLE
row,SMILES,Ki
1,CCc1ccccc1NC(=O)N1CCCC1C(=O)NCCc1ccccc1 (centres undefined),> 50 µM
2,CCCCNC(=O)C1CCCCN1S(=O)(=O)/C=C/c1ccccc1 (centres undefined),11 µM
3,CCCCCCCCS(=O)(=O)N1CCCC1C(=O)NCCCc1ccccc1 (centres undefined),5.4 µM
4,CCCCNC(=O)C1CCCN1C(=O)NCc1ccccc1 (centres undefined),> 50 µM
5,CCCCNC(=O)C1CCCCN1S(=O)(=O)c1ccccc1 (centres undefined),4.7 µM
6,Cc1ccc(S(=O)(=O)N2CCCC2C(=O)NCCc2ccccc2)cc1 (centres undefined),33 µM
7,CCc1ccccc1NC(=O)N1CCCC1C(=O)NCc1ccccc1 (centres undefined),> 50 µM
8,CCCCNC(=O)C1CCCCN1S(=O)(=O)Cc1ccccc1 (centres undefined),> 50 µM
9,Cc1ccc(S(=O)(=O)N2CCCC2C(=O)NCCCc2ccccc2)cc1 (centres undefined),7.6 µM
10,CCCCCCCCS(=O)(=O)N1CCCC1C(=O)NCCc1ccccc1 (centres undefined),> 50 µM
11,O=C(NCCCc1ccccc1)C1CCCN1C(=O)NC1CCCCC1 (centres undefined),> 33 µM
12,O=C(NCCCc1ccccc1)C1CCCN1C(=O)Nc1ccccc1 (centres undefined),1.4 µM
13,CCCCCCCCS(=O)(=O)N1CCCC1C(=O)NCc1ccccc1 (centres undefined),> 50 µM
14,CCCCNC(=O)C1CCCN1S(=O)(=O)c1ccc(C)cc1 (centres undefined),> 50 µM
15,CCCCNC(=O)C1CCCN1S(=O)(=O)c1ccccc1 (centres undefined),> 50 µM
16,CCCCNC(=O)C1CCCN1C(=O)NC1CCCCC1 (centres undefined),> 50 µM
17,O=C(NCCc1ccccc1)C1CCCN1C(=O)NC1CCCCC1 (centres undefined),> 50 µM
18,CCCCNC(=O)C1CCCN1C(=O)Nc1ccccc1CC (centres undefined),> 50 µM
19,O=C(NCc1ccccc1)C1CCCN1C(=O)NC1CCCCC1 (centres undefined),> 50 µM
20,CCc1ccccc1NC(=O)N1CCCC1C(=O)NCCCc1ccccc1 (centres undefined),> 50 µM
21,CCc1ccc(S(=O)(=O)N2CCCCC2C(=O)NCCc2ccccc2)cc1 (centres undefined),1.6 µM
22,CCCCNC(=O)C1CCCCN1S(=O)(=O)c1ccc(CC)cc1 (centres undefined),1.2 µM

# Continued, values first:
row,Ki,SMILES
1,0.72 µM,O=C(NCCCc1ccccc1)C1CCCCN1S(=O)(=O)c1ccccc1 (centres undefined)
2,39 µM,O=C(NCc1ccccc1)C1CCCCN1S(=O)(=O)Cc1ccccc1 (centres undefined)
3,1.3 µM,O=C(NCCCc1ccccc1)C1CCCN1S(=O)(=O)/C=C/c1ccccc1 (centres undefined)
4,> 50 µM,O=C(NCc1ccccc1)C1CCCN1S(=O)(=O)/C=C/c1ccccc1 (centres undefined)
5,13 µM,O=C(NCCCc1ccccc1)C1CCCN1S(=O)(=O)CCc1ccccc1 (centres undefined)
6,22 µM,O=C(NCc1ccccc1)C1CCCN1S(=O)(=O)CCc1ccccc1 (centres undefined)
7,42 µM,CCCCNC(=O)C1CCCN1S(=O)(=O)CCc1ccccc1 (centres undefined)
8,13 µM,O=C(NCCc1ccccc1)C1CCCCN1S(=O)(=O)Cc1ccccc1 (centres undefined)
9,> 30 µM,O=C(NCCc1ccccc1)C1CCCN1C(=O)NCc1ccccc1 (centres undefined)
10,> 50 µM,O=C(NCc1ccccc1)C1CCCN1C(=O)NCc1ccccc1 (centres undefined)
11,32 µM,O=C(NCCc1ccccc1)C1CCCN1S(=O)(=O)CCc1ccccc1 (centres undefined)
12,33 µM,O=C(NCc1ccccc1)C1CCCN1C(=O)Nc1ccccc1 (centres undefined)
13,22 µM,O=C(NCCc1ccccc1)C1CCCN1S(=O)(=O)/C=C/c1ccccc1 (centres undefined)
14,1.5 µM,O=C(NCCc1ccccc1)C1CCCCN1S(=O)(=O)c1ccccc1 (centres undefined)
15,2.5 µM,O=C(NCc1ccccc1)C1CCCCN1S(=O)(=O)c1ccccc1 (centres undefined)
16,1.6 µM,O=C(NCCCCc1ccccc1)[C@@H]1CCCCN1C(=O)NCc1ccccc1
17,37 µM,O=C(NCCc1ccccc1)C1CCCN1S(=O)(=O)c1ccccc1 (centres undefined)
18,1.3 µM,CCc1ccc(S(=O)(=O)N2CCCCC2C(=O)NCc2ccccc2)cc1 (centres undefined)
19,2.2 µM,O=C(NCCCc1ccccc1)C1CCCCN1S(=O)(=O)Cc1ccccc1 (centres undefined)
20,1.1 µM,O=C(NCCCc1ccccc1)C1CCCCN1S(=O)(=O)/C=C/c1ccccc1 (centres undefined)
21,3.9 µM,O=C(NCc1ccccc1)C1CCCCN1S(=O)(=O)/C=C/c1ccccc1 (centres undefined)
22,2.4 µM,O=C(NCCc1ccccc1)C1CCCCN1S(=O)(=O)/C=C/c1ccccc1 (centres undefined)
23,30 µM,O=C(NCCc1ccccc1)C1CCCN1C(=O)Nc1ccccc1 (centres undefined)
24,9.5 µM,O=C(NCCCc1ccccc1)C1CCCN1S(=O)(=O)c1ccccc1 (centres undefined)
25,4.2 µM,O=C(NCCCc1ccccc1)[C@@H]1CCCN1C(=O)NCc1ccccc1
26,> 50 µM,Cc1ccc(S(=O)(=O)N2CCCC2C(=O)NCc2ccccc2)cc1 (centres undefined)
27,2.8 µM,O=C(NCCCc1ccccc1)[C@@H]1CCCN1S(=O)(=O)Cc1ccccc1

# Test system: Mus musculus
# Experiment: Recovery of TH-immunostaining in […]-treated mice by post-MPTP treatment at a peroral dose of 10 mg/kg
# Type: functional, organism-based
# Design: dose 10 mg/kg
row,SMILES,Recovery
1,CCC(C)(C)C(=O)C(=O)N1CCC[C@H]1C(=O)OCCCc1cccnc1,40%
2,O=C(NCCCCc1ccccc1)[C@@H]1CCCCN1S(=O)(=O)Cc1ccccc1,37%
3,O=C(NCCCCc1ccccc1)[C@@H]1CCCCN1C(=O)NCc1ccccc1,42%
4,O=C(NCCCc1ccccc1)[C@@H]1CCCN1C(=O)NCc1ccccc1,31%
5,O=C(NCCCc1ccccc1)[C@@H]1CCCN1S(=O)(=O)Cc1ccccc1,17%
